In brackets after ≈: the same amount, converted by molar mass. Several values for one entry are separate records, joined by “and”; a condition that tells them apart may be missing. Equal values may be shown once. Read-outs that look alike come from different tables or passages of the source.
What was measured:
[1] = test system: tubulin; assay: Tubulin polymerisation assay in IGROV-1/Pt1 cells; format: cell-based, human; conditions: 24 h
Experimental: For tubulin polymerisation assay, IGROV-1/Pt1 cells were treated with PTX or IDN 5390 at the indicated concentrations for 24 h. Cells were then processed as previously described ([Cassinelli et al, 2001]) in order to separate cellular fractions containing soluble cytosolic or polymerised cytoskeletal tubulin. Samples were electrophoresed by sodium dodecyl sulphate (SDS)–PAGE (10% resolving gel and 3% stacking gel) and blotted onto nitrocellulose membranes. The distribution of tubulin was analysed by immunoblotting, using a rabbit polyclonal antitubulin antibody (BioMakor, Revohot, Israel).

[2] = test system: A2780/DX cells; assay: Antiproliferative activity, A2780/DX; format: cell-based; conditions: Homo sapiens, 72 h treatment, cell counting, MDR phenotype mediated by P-gp
Experimental: (§1) Drugs were dissolved in DMSO and freshly diluted in medium before use. The antiproliferative activity was evaluated on A2780 (human ovarian carcinoma) and its derived drug-resistant cell lines (A2780/DX, A2780/DDP), IGROV-1/Pt1 (human ovarian carcinoma), GBM (human glioblastoma) and MX-1 (human mammary carcinoma). All cell lines, except MX-1, were maintained in RPMI 1640 (Bio-Whittaker, Verviers, Belgium) supplemented with 10% fetal calf serum (Life Technologies, Gaithersburg, MD, USA). MX-1 cells were maintained in McCoy's medium (Life Technologies, Gaithersburg, MD, USA) supplemented with 10% fetal calf serum. For experiments, all cell lines were seeded into six-well plates in duplicate and treated, 24 or 72 h (only MX-1 cells) after seeding, with solvent or different concentrations of taxanes. Adherent cells were counted 72 h after the beginning of treatment, by a cell counter (Coulter Electronics, Luton, UK) or detected by the Sulforhodamine B colorimetric assay (only GBM cells). The IC50 was defined as the drug concentration causing a 50% decrease in cell number over that of untreated controls.

[3] = test system: A2780/DDP ovarian tumour xenograft; assay: Antitumour activity on A2780/DDP xenograft; conditions: for Tox/Tot: toxic deaths/total mice
Experimental: (§2) All the experiments were carried out using female athymic nude CD-1 mice, 8–11 weeks old (Charles River, Calco, Italy). The mice were maintained in laminar flow rooms with constant temperature and humidity.
(§3) Taxanes were dissolved by adding absolute ethanol and Cremophor ELP (both 5% of the final volume), in that sequence, on a magnetic stirrer. […] After dilution, the drug solutions were always kept on ice. […] (Milano, Italy) and, just before use, it was diluted, by slowly adding 0.9% NaCl and occasionally stirring the solution (final Polysorbate 80: 10%, v v^−1). […] When higher doses were to be given, larger volumes were injected.
(§4) Tumour lines were maintained in vivo by successive s.c. transplants of tumour fragments in animal flanks.
(§5) For chemotherapy experiments, tumour fragments (about 2 × 2 × 2 mm), obtained from tumour lines, were implanted s.c. Each control or drug-treated group included five or six mice bearing bilateral s.c. tumours. Tumours were implanted on day 0, and tumour growth was followed by biweekly measurements of tumour diameters with a vernier caliper. Tumour weight (TW) was calculated according to the formula: TW (mg)=tumour volume (mm^3)=d^2 × D/2, where d and D are the shortest and the longest diameter, respectively. Different treatment routes (i.v., s.c. or p.o.) and schedules (daily or intermittent) were investigated. […] Control mice were injected with the solvent solution.
(§6) Experimental groups were eliminated when mean TW was about 1.5±0.5 g, or after 100 days.
(§7) For statistical analysis, tumour weights in different groups of treated mice were compared on day of TWI% evaluation, by Student's t-test (two-tailed). P⩽0.05 was considered significant.
(§8) The tolerability of the compound was assessed in tumour-bearing mice as follows: (a) lethal toxicity, that is, any death in treated mice without or with small (⩽300 mg) tumours, or occurring before any control death; (b) body weight loss % (BWL%)=100–(BW on day x/BW on day 1 × 100), where x represents a day after or during the treatment period. The maximal BWL values are reported; and (c) vesicant toxicity defined as the appearance of ulcers and/or inflammation at the injection site where the drugs were delivered s.c.

[4] = test system: MX-1 (human mammary carcinoma); assay: Antiproliferative activity, MX-1; format: cell-based; conditions: 72 h treatment, cell counting, mean±s.d., three experiments
Experimental: as §1

[5] = test system: VEGF; assay: VEGF expression in GBM cells, immunoblotting; conditions: 72 h at IC80: IDN 5390 40, PTX 17 ng ml^−1
[6] = test system: INT.ACP/PTX PTX-resistant ovarian tumour xenograft; assay: Antitumour activity on INT.ACP/PTX xenograft; conditions: p.o.
Experimental: as §2, §3, §4, §5, §6, §7, §8

[7] = test system: MX-1 mammary tumour xenograft; conditions: for LCK (1 g) / Max BWL (%) / Tox/Tot / Max TWI%: qd × 4–5/w × 3w
[8] = test system: A2780 (human ovarian carcinoma); assay: Antiproliferative activity, A2780; format: cell-based; conditions: 72 h treatment, cell counting, mean±s.d., three experiments
Experimental: as §1

[9] = test system: IGROV-1 PTX-resistant ovarian tumour xenograft; assay: Antitumour activity on IGROV-1 xenograft; conditions: p.o., qd × 5/w × 3w, 120 mg kg^−1
Experimental: as §2, §3, §4, §5, §6, §7, §8

[10] = mouse, in vivo
[11] = test system: GBM (human glioblastoma); assay: Antiproliferative activity, GBM (Sulforhodamine B); format: cell-based
Experimental: as §1

[12] = test system: human tumour cell lines; format: cell-based
Experimental: as §1

[13] = test system: bFGF; assay: bFGF expression in GBM cells, immunoblotting; conditions: 72 h at IC80: IDN 5390 40, PTX 17 ng ml^−1
[14] = in vivo; conditions: female, athymic nude CD-1, mouse, sc
[15] = s.c., qd × 5/w × 2w, 120 mg kg^−1
[16] = qd × 5/w × 2w, 2 × 120 mg kg^−1
[17] = 2 × 90 mg kg^−1 p.o., up to 5 weeks, 50 treatments

CC(=O)O[C@@]1([C@@H]2/C(C)=C(/O)C(=O)C3=C(C)[C@@H](OC(=O)[C@H](O)[C@H](CC(C)C)NC(=O)OC(C)(C)C)C[C@@](O)([C@H]2OC(=O)c2ccccc2)C3(C)C)CO[C@@H]1CCO [IDN 5390, 13-(N-Boc-β-isobutylisoserinyl)-10β-dehydro-C-seco-10-deacetylbaccatin III]
tubulin polymerisation ([1]; equitoxic concentrations (IC80): IDN 5390 300, PTX 100 ng ml^−1): comparable extent of tubulin polymerisation
tubulin polymerisation ([1]; same concentration (100 ng ml^−1), vs PTX): less effective than the parent drug
IC50 [2]: 0.334 µg/mL (≈ 0.424 µM)
LCK (1 g) ([3]; i.v., q4d × 4, 90 mg kg^−1): 0.2
Max BWL (%) ([3]; i.v., q4d × 4, 90 mg kg^−1): 0%
Max TWI% ([3]; i.v., q4d × 4, 90 mg kg^−1, day 18, start at tumour weight about 100 mg): 17 (18) %
Tox/Tot ([3]; i.v., q4d × 4, 90 mg kg^−1): 0/5
LCK (1 g) ([3]; i.v., q4d × 4, 120 mg kg^−1): 0.3
Max BWL (%) ([3]; i.v., q4d × 4, 120 mg kg^−1): 3%
Max TWI% ([3]; i.v., q4d × 4, 120 mg kg^−1, day 18): 46 (18) %
Tox/Tot ([3]; i.v., q4d × 4, 120 mg kg^−1): 0/5
LCK (1 g) [3, 15]: 1.8
Max BWL (%) [3, 15]: 2.5%
Max TWI% ([3]; s.c., qd × 5/w × 2w, 120 mg kg^−1, day 27): 92 (27) %
Tox/Tot [3, 15]: 0/5
IC50 [4]: 0.0345 ± 0.0078 µg/mL (≈ 0.0438 µM)
VEGF expression [5]: downregulated
LCK (1 g) ([6]; qd × 5/w × 2w, 180 mg kg^−1): 1.9
Max BWL (%) ([6]; qd × 5/w × 2w, 180 mg kg^−1): 10%
Tox/Tot ([6]; qd × 5/w × 2w, 180 mg kg^−1): 2/5
TWI% (day 27) ([6]; qd × 5/w × 2w, 180 mg kg^−1, P<0.05 vs 2 × 90 mg kg^−1): 96% and 96 ^* %
LCK (1 g) [6, 16]: 1.4
Max BWL (%) [6, 16]: 15%
TWI% (day 27) [6, 16]: 87%
Tox/Tot [6, 16]: 1/5
LCK (1 g) ([6]; qd × 5/w × 3w, 2 × 90 mg kg^−1): 0.8
Max BWL (%) ([6]; qd × 5/w × 3w, 2 × 90 mg kg^−1): 9%
TWI% (day 27) ([6]; qd × 5/w × 3w, 2 × 90 mg kg^−1): 66%
Tox/Tot ([6]; qd × 5/w × 3w, 2 × 90 mg kg^−1): 0/6
antitumour efficacy ([7]; 30 mg kg^−1 p.o. twice a day, start when tumours averaged 100 mg): not very effective
tumours exhibiting CR at the end of the experiment ([7]; 2 × 90 mg kg^−1 p.o., 5 weeks, end of the experiment (100 days)): six out of 10
lethal toxicity [7, 17]: no lethal toxicity
max BWL [7, 17]: 11%
LCK (1 g) ([7]; p.o., 120 mg kg^−1, from day 1): 1.1
Max BWL (%) ([7]; p.o., 120 mg kg^−1, from day 1): 5%
Tox/Tot ([7]; p.o., 120 mg kg^−1, from day 1): 0/5
Max TWI% ([7]; p.o., 120 mg kg^−1, from day 1, day 25): 82(25) %
TWI ([7]; s.c., all doses, after 3 weeks of treatment): > 80%
LCK (1 g) ([7]; s.c., 60 mg kg^−1, from day 1): 1.4
Max BWL (%) ([7]; s.c., 60 mg kg^−1, from day 1): 3%
Tox/Tot ([7]; s.c., 60 mg kg^−1, from day 1): 0/3
Max TWI% ([7]; s.c., 60 mg kg^−1, from day 1, day 29): 83(29) %
LCK (1 g) ([7]; s.c., 90 mg kg^−1, from day 1): 2.7
Max BWL (%) ([7]; s.c., 90 mg kg^−1, from day 1): 3.5%
Tox/Tot ([7]; s.c., 90 mg kg^−1, from day 1): 0/5
Max TWI% ([7]; s.c., 90 mg kg^−1, from day 1, day 29): 97(29) %
LCK (1 g) ([7]; s.c., 120 mg kg^−1, from day 1): 1.7–3.1
Max BWL (%) ([7]; s.c., 120 mg kg^−1, from day 1): 6–7.5%
Tox/Tot ([7]; s.c., 120 mg kg^−1, from day 1): 1/10
Max TWI% ([7]; s.c., 120 mg kg^−1, from day 1, day 25, P<0.05 vs p.o.): 93–96 ^*(25) %
IC50 [8]: 0.023 ± 0.0004 µg/mL (≈ 0.0292 µM)
LCK (1 g) [9]: 2.2
Max BWL (%) [9]: 13%
TWI% (day 27) [9]: 73%
Tox/Tot [9]: 0/4
neurotoxicity [10]: no symptoms of neurotoxicity were evident
IC50 ([11]; 72 h treatment, Sulforhodamine B assay, mean±s.d., three experiments): 0.0129 ± 0.0024 µg/mL (≈ 0.0164 µM)
IC80 ([11]; GBM cells, read-out: IC80 (equitoxic concentration)): 0.04 µg/mL (≈ 0.0508 µM)
reduction of cytotoxicity as compared to PTX [12]: 2–3 fold
bFGF expression [13]: downregulated
MTD [14]: 120 mg/kg

Source: publication PMC2377083, “IDN 5390: an oral taxane candidate for protracted treatment schedules” (British Journal of Cancer, 2003)
